Target: T1, human MCHR1 (Homo sapiens, UniProt Q99705)
T1 construct: The full-length cDNA for human MCHR1 was cloned; expressed in transfected cells; host or cells: AV12 cells previously transfected with the promiscuous G protein G(alpha)15; membranes
Experiment: competitive 125I-MCH binding assay with clone 43 membranes (SPA)
Conditions: 125I-MCH (100 pM) displacement, Ki from IC50 by Cheng-Prusoff, tested in duplicate
Procedure: (§1) The full-length cDNA for human MCHR1 was cloned from a human adult brain cDNA library (Edge Biosystems, Cat. 38356) by standard polymerase chain reaction (PCR) methodology employing the following primers: sense, 5′-GCCACCATGGACCT GGAAGCCTCGCTGC-3′; anti-sense, 5′-[…]-3′. The PCR reaction was performed in a final volume of 50 μl containing 5 μl of a 10× stock solution of PCR buffer, 1 μl of 10 mM dNTP mixture (200 μM final), 2 μl of 50 mM Mg(SO4) (2 mM final), 0.5 μl of 20 μM solutions of each primer (0.2 μM final), 5 μl of template cDNA containing 0.5 ng DNA, 0.5 μl of Platinum Taq High Fidelity DNA polymerase (Gibco Life Technologies) and 36 μl of H2O. PCR amplification was performed on a Perkin Elmer 9600 thermocycler. After denaturation for 90 sec at 94° C., the amplification sequence consisting of 94° C. for 25 sec, 55° C. for 25 sec and 72° C. for 2 min was repeated 30 times, followed by a final elongation step at 72° C. for 10 min. The desired PCR product (1.1 Kb) was confirmed by agarose gel electrophoresis and the band was extracted from the gel by Geneclean (Bio101) following the manufacturer's instructions. Following extraction, the cDNA fragment was cloned into pCR2.1-TOPO plasmid (Invitrogen) to confirm the identity and sequence.
(§2) In order to generate cell lines stably expressing MCHR1, the insert was then subcloned into the Xba I and Not I sites of pcDNA(+)-3.1-neomycin (Invitrogen). After purification by Qiagen Maxi-prep kit (QIAGEN, Inc.), the plasmid was transfected by Fugene 6 (Roche Applied Science) into AV12 cells that had been previously transfected with the promiscuous G protein G[…]15. The transfected cells were selected by G418 (800 μg/ml) for. 10-14 days and single colonies were isolated from culture plates. The G418-resistant colonies were further selected for MCHR1 expression by measuring MCH-stimulated Ca^2+ transients with a fluorometric imaging plate reader (FLIPR, Molecular Devices).
Both the ^125I-MCH binding and functional GTPγ^35S binding assays employed membranes isolated from a clone designated as clone 43. Typically, cells from 20 confluent T225 flasks were processed by washing the monolayers in cold phosphate-buffered saline (PBS), scraping the cells into same and re-suspending the cell pellet in 35 ml of 250 mM Sucrose, 50 mM HEPES, pH 7.5, 1 mM MgCl2, 24 μg/ml DNase I, and protease inhibitors (1 Complete® tablet, per 50 ml of buffer prepared, Roche Diagnostics). After incubation on ice for 5 min, cells were disrupted with 20-25 strokes of a Teflon/Glass homogenizer attached to an overhead motorized stirrer, and the homogenate was centrifuged at 40,000 rpm in Beckman Type 70.1 Ti rotor. The pellets were re-suspended in 250 mM Sucrose, 50 mM HEPES, pH 7.5, 1.5 mM CaCl2, 1 mM MgSO4 and protease inhibitors by Teflon/Glass homogenization to achieve a protein concentration of ˜3-5 mg/ml (Pierce BCA assay with Bovine serum albumin as standard). Aliquots were stored at −70° C.
Binding of compounds to MCHR1 was assessed in a competitive binding assay employing ^125I-MCH, compound and clone 43 membranes. Briefly, assays are carried out in 96-well Costar 3632 white opaque plates in a total volume of 200 μl containing 25 mM HEPES, pH 7.5, 10 mM CaCl2, 2 mg/ml bovine serum albumin, 0.5% dimethyl sulfoxide (DMSO), 4 μg of clone 43 membranes, 100 pM ^125I-MCH (NEN), 1.0 mg of wheat germ agglutinin scintillation proximity assay beads (WGA-SPA beads, Amersham) and a graded dose of test compound. Non-specific binding is assessed in the presence of 1 μM unlabeled MCH. Bound ^125I-MCH is determined by placing sealed plates in a Microbeta Trilux (Wallac) and counting after a 5 hr delay.
IC50 values (defined as the concentration of test compound required to reduce specific binding of ^125I-MCH by 50%) are determined by fitting the concentration-response data to a 4-parameter model (max response, min response, Hill coefficient, IC50) using Excel. […]

T1 sequence (Q99705 whole entry): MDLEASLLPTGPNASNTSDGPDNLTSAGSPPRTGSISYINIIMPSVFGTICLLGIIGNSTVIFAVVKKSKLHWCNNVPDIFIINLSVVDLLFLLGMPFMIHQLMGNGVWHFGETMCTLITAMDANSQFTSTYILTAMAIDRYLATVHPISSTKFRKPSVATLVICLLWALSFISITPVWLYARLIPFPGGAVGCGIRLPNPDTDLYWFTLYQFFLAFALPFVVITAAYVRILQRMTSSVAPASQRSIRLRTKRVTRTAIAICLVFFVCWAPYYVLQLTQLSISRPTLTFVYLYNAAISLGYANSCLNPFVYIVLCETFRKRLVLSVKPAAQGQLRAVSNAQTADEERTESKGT

| SMILES | Ki [nM] |
| --- | --- |
| O=C1c2ccc(-c3nnc(CSCCOc4ccccc4)o3)cc2CN1CCN1CCCCC1 | 1070 |
| O=C1c2cc(-c3nnc(CSCCOc4ccccc4)o3)ccc2CN1CCN1CCCCC1 | 2000 |
| CN(C)Cc1cc2cc(-c3nnc(CSCCOc4ccccc4)o3)ccc2[nH]1 | 190 |
| c1ccc(OCCSCc2nnc(-c3ccc4cc(CN5CCCC5)ccc4c3)o2)cc1 | 7.3 |
| CN(C)Cc1c[nH]c2cc(-c3nnc(CSCCOc4ccccc4)o3)ccc12 | 682 |
| CN(C)Cc1cn(C)c2ccc(-c3nnc(CSCCOc4ccccc4)o3)cc12 | 11100 |
| CN(C)Cc1cc2ccc(-c3nnc(CSCCOc4ccccc4)o3)cc2o1 [drawing 39] | 372 |
| CN(C)Cc1cc2ccc(-c3nnc(CSCCOc4ccccc4)o3)cc2o1 [drawing 41] | 383 |
| CN(C)Cc1ccc2cc(-c3nnc(CSCCOc4ccccc4)o3)ccc2c1 [drawing 44] | 8.2 |
| c1ccc(OCCSCc2nnc(-c3ccc4cc(CN5CCCCC5)ccc4c3)o2)cc1 [drawing 47] | 17.6 |
| CN(C)Cc1cc2cc(-c3nnc(CSCCOc4ccccc4)o3)ccc2o1 [drawing 50] | 235 |
| CN(C)Cc1cc2cc(-c3nnc(CSCCOc4ccccc4)o3)ccc2o1 [drawing 52] | 153 |
| CN(C)Cc1cc2ccc(-c3nnc(CSCCOc4ccccc4)o3)cc2[nH]1 [drawing 54] | 34.6 |

Test system: not given
Experiment: not given
Conditions: not given

| SMILES | melting point [°C] |
| --- | --- |
| CN(C)Cc1cc2cc(-c3nnc(CSCCOc4ccccc4)o3)ccc2[nH]1.O=C(O)C(=O)O [Example 3, dimethyl-{5-[5-(2-phenoxy-ethylsulfanylmethyl)-[1,3,4]oxadiazol-2-yl]-1H-indol-2-ylmethyl}-amine oxalate] | 147 to 150 |
| CN(C)Cc1cc2ccc(-c3nnc(CSCCOc4ccccc4)o3)cc2[nH]1 [Example 4, dimethyl-{6-[5-(2-phenoxy-ethylsulfanylmethyl)-[1,3,4]oxadiazol-2-yl]-1H-indol-2-ylmethyl}-amine] | 128 to 130 |
| CN(C)Cc1cc2ccc(-c3nnc(CSCCOc4ccccc4)o3)cc2n1C.O=C(O)C(=O)O [Example 5, dimethyl-{1-methyl-6-[5-(2-phenoxy-ethylsulfanylmethyl)-[1,3,4]oxadiazol-2-yl]-1H-indol-2-ylmethyl}-amine oxalate] | 125.5 to 129 |
| CN(C)Cc1c[nH]c2ccc(-c3nnc(CSCCOc4ccccc4)o3)cc12.O=C(O)C(=O)O [Example 6, dimethyl-{5-[5-(2-phenoxy-ethylsulfanylmethyl)-[1,3,4]oxadiazol-2-yl]-1H-indol-3-ylmethyl}-amine oxalate] | 159 to 163 |
| CN(C)Cc1c[nH]c2cc(-c3nnc(CSCCOc4ccccc4)o3)ccc12.O=C(O)/C=C\C(=O)O [Example 7, Dimethyl-{6-[5-(2-phenoxy-ethylsulfanylmethyl)-[1,3,4]oxadiazol-2-yl]-1H-indol-3-ylmethyl}-amine maleate] | 127 to 129 |
| CN(C)Cc1cn(C)c2ccc(-c3nnc(CSCCOc4ccccc4)o3)cc12.O=C(O)C(=O)O [Example 8, dimethyl-{1-methyl-5-[5-(2-phenoxy-ethylsulfanylmethyl) -[1,3,4]oxadiazol-2-yl]-1H-indol-3-ylmethyl}-amine oxalate] | 151 to 154 |
| CN(C)Cc1ccc2cc(-c3nnc(CSCCOc4ccccc4)o3)ccc2c1 [Example 11, Dimethyl-{6-[5-(2-phenoxy-ethylsulfanylmethyl)-[1,3,4]oxadiazol-2-yl]-naphthalen-2-ylmethyl}-amine] | 95 to 96 |
| O=C(O)/C=C\C(=O)O.c1ccc(OCCSCc2nnc(-c3ccc4cc(CN5CCCC5)ccc4c3)o2)cc1 [Example 12, 2-(2-Phenoxy-ethylsulfanylmethyl)-5-(6-pyrrolidin-1-ylmethyl-naphthalen-2-yl)-[1,3,4]oxadiazole maleate] | 133 to 135 |
| c1ccc(OCCSCc2nnc(-c3ccc4cc(CN5CCCCC5)ccc4c3)o2)cc1 [Example 13, 1 -{6-[5-(2-phenoxy-ethylsulfanylmethyl)-[1,3,4]oxadiazol-2-yl]-naphthalen-2-ylmethyl}-piperidine] | 93 to 94 |

Target: T1, human MCHR1
Experiment: inhibition of MCH-stimulated GTPγ35S binding to clone 43 membranes (functional antagonism)
Assay type: biochemical
Conditions: 40 nM MCH-stimulated GTPγ35S binding, Kb from IC50 by modified Cheng-Prusoff (Leff and Dougal), tested in duplicate
Procedure: as §1
as §2, with “Devices). […]” for “Devices).”
Functional antagonism of MCH activity is assessed by measuring the ability of test compound to inhibit MCH-stimulated binding of GTPγ^35S to clone 43 membranes. […]

| SMILES | Kb [nM] |
| --- | --- |
| c1ccc(OCCSCc2nnc(-c3ccc4cc(CN5CCCC5)ccc4c3)o2)cc1 | 7 |
| CN(C)Cc1ccc2cc(-c3nnc(CSCCOc4ccccc4)o3)ccc2c1 [drawing 44] | 11.8 |
| c1ccc(OCCSCc2nnc(-c3ccc4cc(CN5CCCCC5)ccc4c3)o2)cc1 [drawing 47] | 58.4 |

From US20070135485A1, “Novel mch receptor antagonists” (priority 2003, published 2007)
